Experimental data published in publication PMC4471201, “Micafungin concentrations 100 mg daily in plasma and burn eschars in patients with severe burn injuries” (Critical Care, 2015).
*1 amine or outer side, *2 acyl side, *3 side chain or, on linkers, in order; H or OH if unused. Where a SMILES comes first, the peptide text is derived from it. Bridges are numbered along the chain shown (N, C = ends). [ ]: non-standard residue; d: D form. The star is where a group is joined. hTyr(3S-OH,4S-OH,3'-OSO3H) = N[C@H](C(=O)O)[C@H](O)[C@@H](O)c1ccc(O)c(OS(=O)(=O)O)c1; Orn(4R-OH,5R-OH) = O=C([C@H](C[C@@H](O)[C@@H](O)N[*:3])N[*:1])[*:2]; Pro(3S-OH,4S-Me) = C[C@H]1CN[C@H](C(=O)O)[C@H]1O; X1 = CCCCCOc1ccc(-c2cc(-c3ccc(C(=O)*)cc3)no2)cc1; Gln(3R-OH) = NC(=O)C[C@@H](O)[C@H](N)C(=O)O; Hyp = O=C(O)[C@@H]1C[C@@H](O)CN1

Legend:
Assay type in all cases: in vivo
[1] = MCF levels in burn eschar tissue on day 5, HPLC; settings: Spearman's rho test; 10 patients
Procedure: (§1) A PK study of MCF at standard dosage (100 mg/day). Cmax (end of the infusion) and Cmin (before next dose) plasma levels of MCF were obtained after first dose and at steady state (days 4 and 5 of therapy); and on day 5 in eschars (1 to 3 hours after infusion). They were measured by HPLC. Spearman's rho test was used for bivariate correlations between MCF exposure and patient's clinical factors.

[2] = Tolerability of MCF 100 mg/day in severely burned patients; settings: 10 severely burned patients
Procedure: as §1
There were 10 patients (eight men; age: 18 to 77 years). […] Peak plasma concentrations after the first and repeated doses of MCF were inversely correlated with % burned TBSA (Spearman's ρ = -0.695 and -0.750 (P < 0.05)), respectively, but not with the time from burn injury. […] One patient had candidemia. The crude mortality was 40%.

[3] = Plasma levels of MCF (Cmax/Cmin) in severely burned patients, HPLC; settings: 100 mg/day
Procedure: as §1

CCCCCOc1ccc(-c2cc(-c3ccc(C(=O)N[C@H]4C[C@@H](O)[C@@H](O)NC(=O)[C@@H]5[C@@H](O)[C@@H](C)CN5C(=O)[C@H]([C@H](O)CC(N)=O)NC(=O)[C@H]([C@H](O)[C@@H](O)c5ccc(O)c(OS(=O)(=O)O)c5)NC(=O)[C@@H]5C[C@@H](O)CN5C(=O)[C@H]([C@@H](C)O)NC4=O)cc3)no2)cc1 [MCF, Micafungin] (X1-[Orn(4R-OH,5R-OH)]T[Hyp][hTyr(3S-OH,4S-OH,3'-OSO3H)][Gln(3R-OH)][Pro(3S-OH,4S-Me)]; lactam 1-C)
Correlation of concentrations in burn eschars with % burned TBSA [1]: not correlated | Tolerability [2]: well tolerated | Plasma levels compared with MIC90 against most clinically important Candida species ([3]; after first and multiple doses): above the MIC90 | Plasma Cmin after first dose, median ([3]; median of 10 patients, before next dose, plasma, HPLC): 700 ng/mL | Plasma Cmin at steady state, median ([3]; median of 10 patients, days 4 and 5 of therapy, before next dose, plasma, HPLC): 1000 ng/mL | Plasma Cmax at steady state, median ([3]; median of 10 patients, days 4 and 5 of therapy, end of the infusion, plasma, HPLC): 6400 ng/mL | Plasma Cmax after first dose, median ([3]; median of 10 patients, end of the infusion, plasma, HPLC): 4700 ng/mL
